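Where inhibition never reached the appropriate level, the endpoint shown equals the highest concentration tested. Otherwise, values were interpolated linearly from a five-concentration, 48-hour dose response in 96-well plates. At the GI50, growth is halved. TGI: total growth inhibition.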
Legend:
Test in all cases: NCI anticancer screen, dose series, 48 h; in the data active = GI50 below about 0.43 µM; inactive = the rest
[1] = tested on: M14 melanoma
[2] = tested on: CAKI-1 renal
[3] = tested on: UACC-257 melanoma
[4] = tested on: MDA-MB-231 breast
[5] = tested on: HCC-2998 colon
[6] = tested on: KM12 colon
[7] = tested on: MOLT-4 leukemia
[8] = tested on: SW-620 colon
[9] = tested on: NCI-H23 lung
[10] = tested on: RXF 393 renal
[11] = tested on: UO-31 renal
[12] = tested on: NCI/ADR-RES ovarian
[13] = tested on: SN12C renal
[14] = tested on: HCT-116 colon
[15] = tested on: SR leukemia
[16] = tested on: U251 CNS
[17] = tested on: T-47D breast
[18] = tested on: A498 renal
[19] = tested on: LOX IMVI melanoma
[20] = tested on: 786-0 renal
[21] = tested on: IGROV1 ovarian
[22] = tested on: HCT-15 colon
[23] = tested on: SK-MEL-5 melanoma
[24] = tested on: SF-539 CNS
[25] = tested on: ACHN renal
[26] = tested on: MALME-3M melanoma
[27] = tested on: OVCAR-5 ovarian
[28] = tested on: HL-60(TB) leukemia
[29] = tested on: RPMI-8226 leukemia
[30] = tested on: NCI-H226 lung
[31] = tested on: NCI-H460 lung
[32] = tested on: MDA-MB-435
[33] = tested on: HS 578T breast
[34] = tested on: BT-549 breast
[35] = tested on: SNB-75 CNS
[36] = tested on: CCRF-CEM leukemia
[37] = tested on: OVCAR-3 ovarian
[38] = tested on: SK-MEL-28 melanoma
[39] = tested on: A549 NSCLC
[40] = tested on: MCF7 breast
[41] = tested on: HT29 colon
[42] = tested on: UACC-62 melanoma
[43] = tested on: SF-295 CNS
[44] = tested on: COLO 205 colon
[45] = tested on: SK-OV-3 ovarian
[46] = tested on: HOP-62 NSCLC
[47] = tested on: OVCAR-8 ovarian
[48] = tested on: TK-10 renal
[49] = tested on: PC-3 prostate
[50] = tested on: K-562 leukemia
[51] = tested on: EKVX NSCLC
[52] = tested on: OVCAR-4 ovarian
[53] = tested on: SK-MEL-2 melanoma
[54] = tested on: SF-268 CNS
[55] = tested on: SNB-19 CNS
[56] = tested on: NCI-H522 lung
[57] = tested on: HOP-92 NSCLC
[58] = tested on: DU-145 prostate

COc1cc(-c2cc(C(=O)N3CCN(C(=O)c4ccccc4NCc4ccco4)CC3)nc3cc(-c4ccccc4)nn23)cc(OC)c1OC
6.27 µM: TGI [37]
inactive: GI50 [1] 2.9 µM | GI50 [2] 1.34 µM | GI50 [3] 3.92 µM | GI50 [4] 5.11 µM | GI50 [5] 7.56 µM | GI50 [6] 0.878 µM | GI50 [7] 11.2 µM | GI50 [8] 2.62 µM | GI50 [9] 5.5 µM | GI50 [10] 1.53 µM | GI50 [11] 3.71 µM | GI50 [12] 1.2 µM | GI50 [13] 6.7 µM | GI50 [14] 3.26 µM | GI50 [15] 0.523 µM | GI50 [16] 3.85 µM | GI50 [17] 2.94 µM | GI50 [18] 3.02 µM | GI50 [19] 4.01 µM | GI50 [20] 4.55 µM | GI50 [21] 5.44 µM | GI50 [22] 3.4 µM | GI50 [23] 1.46 µM | GI50 [24] 3.11 µM | GI50 [25] 6.97 µM | GI50 [26] 7.58 µM | GI50 [27] 9.66 µM | GI50 [28] 3.7 µM | GI50 [29] 3.61 µM | GI50 [30] 5.48 µM | GI50 [31] 2.55 µM | GI50 [33] 3.1 µM | GI50 [34] 4.27 µM | GI50 [35] 2.07 µM | GI50 [36] 4.57 µM | GI50 [37] 1.47 µM | GI50 [38] 16.6 µM | GI50 [39] 2.13 µM | GI50 [40] 0.92 µM | GI50 [41] 1.56 µM | GI50 [42] 4.71 µM | GI50 [43] 1.59 µM | GI50 [44] 1.48 µM | GI50 [45] 2.58 µM | GI50 [46] 3.03 µM | GI50 [47] 4.38 µM | GI50 [48] 6.74 µM | GI50 [49] 2.2 µM | GI50 [50] 1.95 µM | GI50 [51] 5.5 µM | GI50 [52] > 26.1 µM | GI50 [53] 2.9 µM | GI50 [54] 4.38 µM | GI50 [55] 7.87 µM | GI50 [56] 0.859 µM
10.7 µM: TGI [41]
> 26 µM: TGI [24]
> 79.4 µM: TGI [53]
> 93.1 µM: TGI [43]
18.8 µM: TGI [45]
> 28.4 µM: TGI [18]
active: GI50 [32] 0.309 µM
19.3 µM: TGI [35]
> 100 µM: TGI [2] | TGI [3] | TGI [4] | TGI [5] | TGI [6] | TGI [7] | TGI [8] | TGI [9] | TGI [11] | TGI [13] | TGI [14] | TGI [15] | TGI [16] | TGI [17] | TGI [19] | TGI [20] | TGI [21] | TGI [22] | TGI [23] | TGI [25] | TGI [26] | TGI [27] | TGI [29] | TGI [30] | TGI [31] | TGI [34] | TGI [36] | TGI [38] | TGI [39] | TGI [40] | TGI [42] | TGI [46] | TGI [47] | TGI [48] | TGI [49] | TGI [50] | TGI [51] | TGI [52] | TGI [54] | TGI [55]
> 75.4 µM: TGI [1]
> 31.8 µM: TGI [12]
30.6 µM: TGI [28]
4.17 µM: TGI [10]
8.66 µM: TGI [44]
> 26.5 µM: TGI [56]
1.61 µM: TGI [32]
> 29.3 µM: TGI [33]

O=S(=O)(c1cc(Cl)ccc1Cl)N1CCN(c2ccc(Cl)c(Cl)c2)CC1
> 100 µM: TGI [1] | TGI [4] | TGI [5] | TGI [6] | TGI [7] | TGI [8] | TGI [9] | TGI [11] | TGI [13] | TGI [14] | TGI [15] | TGI [17] | TGI [19] | TGI [21] | TGI [22] | TGI [26] | TGI [27] | TGI [28] | TGI [29] | TGI [33] | TGI [34] | TGI [36] | TGI [58] | TGI [38] | TGI [39] | TGI [40] | TGI [41] | TGI [49] | TGI [50] | TGI [51]
56.8 µM: TGI [18]
35.4 µM: TGI [57]
50.5 µM: TGI [43]
51.4 µM: TGI [47]
39.6 µM: TGI [46]
34.3 µM: TGI [20]
95.9 µM: TGI [25]
32.4 µM: TGI [52]
54.8 µM: TGI [16]
56.5 µM: TGI [56]
32.1 µM: TGI [55]
33.1 µM: TGI [35]
52.2 µM: TGI [10]
51.5 µM: TGI [23]
53.5 µM: TGI [24]
38.5 µM: TGI [37]
85.9 µM: TGI [54]
45.3 µM: TGI [2]
54 µM: TGI [48]
54.1 µM: TGI [30]
92.7 µM: TGI [3]

Source: PubChem BioAssay (NCI)
